A short description of series [1]: Hemolytic activity in human erythrocytes at 1 mg/ml. In kind it is ADME, cell-based, Erythrocyte. The note with it: read-out: Activity.
Series [2] concerns Aspergillus fumigatus. Kind of series: Antifungal activity against Aspergillus fumigatus FP1305 in RPMI media. In kind it is functional.
Series [3] concerns Candida albicans. Kind of series: Antifungal activity against Candida albicans FP633 in RPMI media. In kind it is functional.
In series [4] the test system is Aspergillus fumigatus. The experiment in a line: Antifungal activity against Aspergillus fumigatus FP1305 in mouse serum. In kind it is functional.
The test system of series [5] is Candida albicans. Kind of series: Antifungal activity against Candida albicans FP633 in mouse serum. In kind it is functional.
In series [6] the test system is Candida albicans. The experiment in a line: Antifungal activity against Candida albicans FP633 infected in mouse. In kind it is functional.
Series [7] can be described thus: AUC (0 to infinity) in mouse at 5 mg/kg, iv after 30 mins. In kind it is ADME, organism-based. Also noted: time infinity, dose 5 mg/kg, route intravenous. As to conditions: plasma.
Series [8] can be described thus: Half life in mouse at 5 mg/kg, iv after 30 mins. In kind it is ADME, organism-based. Also noted: dose 5 mg/kg, route intravenous. The note with it: in vivo.
Series [9] can be described thus: Concentration in mouse plasma at 5 mg/kg, iv after 30 mins. In kind it is ADME, organism-based. Also noted: dose 5 mg/kg, route intravenous.
The subject of series [10] is Aspergillus fumigatus. Kind of series: Antifungal activity against Aspergillus fumigatus FP1305 infected in mouse.

*1 amine or outer side, *2 acyl side, *3 side chain or, on linkers, in order; H or OH if unused. Where a SMILES comes first, the peptide text is derived from it. Bridges are numbered along the chain shown (N, C = ends). [ ]: non-standard residue; d: D form. The star is where a group is joined. ξ: configuration not given here. hTyr(3S-OH,4S-OH,3'-OSO3H) = N[C@H](C(=O)O)[C@H](O)[C@@H](O)c1ccc(O)c(OS(=O)(=O)O)c1; Orn(4R-OH,5R-OH) = O=C([C@H](C[C@@H](O)[C@@H](O)N[*:3])N[*:1])[*:2]; Orn(4R-OH,5S-OH) = O=C([C@H](C[C@@H](O)[C@H](O)N[*:3])N[*:1])[*:2]; X4 = CCCCCCOc1ccc(-c2nnc(-c3ccc(C(=O)*)cc3)s2)cc1; X6 = CCCCCCCOc1ccc(N2CCN(c3ccc(C(=O)*)cn3)CC2)cc1; Pro(3S-OH,4S-Me) = C[C@H]1CN[C@H](C(=O)O)[C@H]1O; X1 = CCCCCCOc1ccc(N2CCN(c3ccc(C(=O)*)cc3)CC2)cc1; X2 = CCCCCOc1ccc(-c2cc(-c3ccc(C(=O)*)cc3)no2)cc1; X3 = CCCCOc1ccc(-c2ccc(-c3ccc(C(=O)*)cc3)cc2)cc1; X5 = CCCCCOc1ccc(-c2cc(-c3ccc(C(=O)*)cc3)on2)cc1; X7 = CCCCCCOc1ccc(C2CCN(c3ccc(C(=O)*)cc3)CC2)cc1; X8 = CCCCCOc1ccc(-c2nc(-c3ccc(C(=O)*)cc3)cs2)cc1; Benzoyl(4-octyloxy) = CCCCCCCCOc1ccc(C(=O)*)cc1; Gln(3R-OH) = NC(=O)C[C@@H](O)[C@H](N)C(=O)O; Hyp = O=C(O)[C@@H]1C[C@@H](O)CN1; ξThr(3R) = C[C@@H](O)C(N)C(=O)O

In the case of `CCCCCOc1ccc(-c2cc(-c3ccc(C(=O)N[C@H]4C[C@@H](O)[C@@H](O)NC(=O)[C@@H]5[C@@H](O)[C@@H](C)CN5C(=O)[C@H]([C@H](O)CC(N)=O)NC(=O)[C@H]([C@H](O)[C@@H](O)c5ccc(O)c(OS(=O)(=O)O)c5)NC(=O)[C@@H]5C[C@@H](O)CN5C(=O)[C@H]([C@@H](C)O)NC4=O)cc3)no2)cc1` (X2-[Orn(4R-OH,5R-OH)]T[Hyp][hTyr(3S-OH,4S-OH,3'-OSO3H)][Gln(3R-OH)][Pro(3S-OH,4S-Me)]; lactam 1-C), in series [1], the hemolysis at 1 mg/ml is less than 20%.
What is called IC50 is the concentration at which inhibition is half-maximal. A lower IC50 goes with higher potency. The term MIC denotes the least concentration at which growth counts as inhibited. A lower MIC goes with a more susceptible organism. For `CCCCCCCOc1ccc(N2CCN(c3ccc(C(=O)N[C@H]4C[C@@H](O)[C@@H](O)NC(=O)[C@@H]5[C@@H](O)[C@@H](C)CN5C(=O)[C@H]([C@H](O)CC(N)=O)NC(=O)[C@H]([C@H](O)[C@@H](O)c5ccc(O)c(OS(=O)(=O)[O-])c5)NC(=O)[C@@H]5C[C@@H](O)CN5C(=O)C([C@@H](C)O)NC4=O)cn3)CC2)cc1.[Na+]` (stereo partly drawn) (X6-[Orn(4R-OH,5R-OH)][ξThr(3R)][Hyp][hTyr(3S-OH,4S-OH,3'-OSO3H)][Gln(3R-OH)][Pro(3S-OH,4S-Me)]; lactam 1-C), in the series with Aspergillus fumigatus [2], the IC50 was 5 ng/mL. Moreover, the MIC was 0.2 µg/mL in the series on Candida albicans [3], 6.25 µg/mL in the series on Aspergillus fumigatus [4] and 3.13 µg/mL against Candida albicans [5]. In series [1], the hemolysis at 1 mg/ml was less than 20%.
What is called ED50 is the dose at which the effect has come halfway, by size or by number of responders. A low value points to an effect at a small dose. As for `CCCCOc1ccc(-c2ccc(-c3ccc(C(=O)N[C@H]4C[C@@H](O)[C@@H](O)NC(=O)[C@@H]5[C@@H](O)[C@@H](C)CN5C(=O)[C@H]([C@H](O)CC(N)=O)NC(=O)[C@H]([C@H](O)[C@@H](O)c5ccc(O)c(OS(=O)(=O)[O-])c5)NC(=O)[C@@H]5C[C@@H](O)CN5C(=O)[C@H]([C@@H](C)O)NC4=O)cc3)cc2)cc1.[Na+]` (X3-[Orn(4R-OH,5R-OH)]T[Hyp][hTyr(3S-OH,4S-OH,3'-OSO3H)][Gln(3R-OH)][Pro(3S-OH,4S-Me)]; lactam 1-C), in the series with Aspergillus fumigatus [2], the IC50 turned out to be 2 ng/mL. In the series with Candida albicans [6], this molecule came in with an ED50 of 0.447 mg/kg. For the same molecule, the minimum inhibitory concentration (MIC) with Candida albicans [3] came to 0.025 µg/mL; against Aspergillus fumigatus [4], 1.56 µg/mL; in the series on Candida albicans [5], 1.56 µg/mL. In series [1], the hemolysis at 1 mg/ml came out at 79%.
With `CCCCCCOc1ccc(-c2nnc(-c3ccc(C(=O)N[C@H]4C[C@@H](O)[C@@H](O)NC(=O)[C@@H]5[C@@H](O)[C@@H](C)CN5C(=O)[C@H]([C@H](O)CC(N)=O)NC(=O)[C@H]([C@H](O)[C@@H](O)c5ccc(O)c(OS(=O)(=O)[O-])c5)NC(=O)[C@@H]5C[C@@H](O)CN5C(=O)C([C@@H](C)O)NC4=O)cc3)s2)cc1.[Na+]` (stereo partly drawn) (X4-[Orn(4R-OH,5R-OH)][ξThr(3R)][Hyp][hTyr(3S-OH,4S-OH,3'-OSO3H)][Gln(3R-OH)][Pro(3S-OH,4S-Me)]; lactam 1-C), the IC50 with Aspergillus fumigatus [2] came to 2 ng/mL. The MIC against Candida albicans [3] amounted to 0.05 µg/mL; in the series on Aspergillus fumigatus [4], 0.78 µg/mL; against Candida albicans [5] it was 0.78 µg/mL. Further, the hemolysis at 1 mg/ml in series [1] is 42%.
Usually AUC(0-inf) stands for the area under the concentration-time curve extrapolated to infinity. Higher therefore signals high exposure. In general, half-life refers to how long it takes for the measured level to halve. As to `CCCCCCCCOc1ccc(C(=O)N[C@H]2C[C@@H](O)[C@H](O)NC(=O)[C@@H]3[C@@H](O)[C@@H](C)CN3C(=O)[C@H]([C@H](O)CC(N)=O)NC(=O)[C@H]([C@H](O)[C@@H](O)c3ccc(O)c(OS(=O)(=O)[O-])c3)NC(=O)[C@@H]3C[C@@H](O)CN3C(=O)[C@H]([C@@H](C)O)NC2=O)cc1.[Na+]` [FR-131535] ({Benzoyl(4-octyloxy)}-[Orn(4R-OH,5S-OH)]T[Hyp][hTyr(3S-OH,4S-OH,3'-OSO3H)][Gln(3R-OH)][Pro(3S-OH,4S-Me)]; lactam 1-C), the MIC against Aspergillus fumigatus [4] was found to be 12.5 µg/mL; with Candida albicans [5], 25 µg/mL. The molecule also yielded an AUC(0-inf) in series [7] of 109 µg·h/mL. The half-life in [8] is 120 min. Moreover, the concentration at 0.5 h in series [9] was determined as 30300 ng/mL.
For the molecule `CCCCCOc1ccc(-c2cc(-c3ccc(C(=O)N[C@H]4C[C@@H](O)[C@@H](O)NC(=O)[C@@H]5[C@@H](O)[C@@H](C)CN5C(=O)[C@H]([C@H](O)CC(N)=O)NC(=O)[C@H]([C@H](O)[C@@H](O)c5ccc(O)c(OS(=O)(=O)[O-])c5)NC(=O)[C@@H]5C[C@@H](O)CN5C(=O)C([C@@H](C)O)NC4=O)cc3)no2)cc1.[Na+]` (stereo partly drawn) (X2-[Orn(4R-OH,5R-OH)][ξThr(3R)][Hyp][hTyr(3S-OH,4S-OH,3'-OSO3H)][Gln(3R-OH)][Pro(3S-OH,4S-Me)]; lactam 1-C), in the series with Aspergillus fumigatus [2], half-maximal inhibition (IC50) was put at 2 ng/mL. For the same molecule, the ED50 with Candida albicans [6] is 0.325 mg/kg; in the series with Aspergillus fumigatus [10], 0.228 mg/kg. Also, the MIC in the series with Candida albicans [3] was 0.05 µg/mL; with Aspergillus fumigatus [4], 1.56 µg/mL; in the series with Candida albicans [5], 1.56 µg/mL. This molecule also yielded an AUC(0-inf) in [7] of 78 µg·h/mL. This molecule also gave a half-life in series [8] of 306 min. The concentration at 0.5 h in series [9] came out at 10100 ng/mL.
Molecule `CCCCCCOc1ccc(N2CCN(c3ccc(C(=O)N[C@H]4C[C@@H](O)[C@@H](O)NC(=O)[C@@H]5[C@@H](O)[C@@H](C)CN5C(=O)[C@H]([C@H](O)CC(N)=O)NC(=O)[C@H]([C@H](O)[C@@H](O)c5ccc(O)c(OS(=O)(=O)[O-])c5)NC(=O)[C@@H]5C[C@@H](O)CN5C(=O)C([C@@H](C)O)NC4=O)cc3)CC2)cc1.[Na+]` (stereo partly drawn) (X1-[Orn(4R-OH,5R-OH)][ξThr(3R)][Hyp][hTyr(3S-OH,4S-OH,3'-OSO3H)][Gln(3R-OH)][Pro(3S-OH,4S-Me)]; lactam 1-C) gave an IC50 with Aspergillus fumigatus [2] of 2 ng/mL. Also, the ED50 with Candida albicans [6] is 0.395 mg/kg; with Aspergillus fumigatus [10], 0.531 mg/kg. Further, the values for the MIC in the series with Candida albicans [3], against Aspergillus fumigatus [4] and against Candida albicans [5] were 0.1 µg/mL, 1.56 µg/mL and 3.13 µg/mL, respectively. For the same molecule, in [1], the hemolysis at 1 mg/ml is less than 20%. Moreover, in series [7], the AUC(0-inf) was 105 µg·h/mL. Further, in series [8], the half-life is 210 min. For the same molecule, the concentration at 0.5 h in series [9] amounted to 18800 ng/mL.
Turning to `CCCCCCOc1ccc(C2CCN(c3ccc(C(=O)N[C@H]4C[C@@H](O)[C@@H](O)NC(=O)[C@@H]5[C@@H](O)[C@@H](C)CN5C(=O)[C@H]([C@H](O)CC(N)=O)NC(=O)[C@H]([C@H](O)[C@@H](O)c5ccc(O)c(OS(=O)(=O)[O-])c5)NC(=O)[C@@H]5C[C@@H](O)CN5C(=O)C([C@@H](C)O)NC4=O)cc3)CC2)cc1.[Na+]` (stereo partly drawn) (X7-[Orn(4R-OH,5R-OH)][ξThr(3R)][Hyp][hTyr(3S-OH,4S-OH,3'-OSO3H)][Gln(3R-OH)][Pro(3S-OH,4S-Me)]; lactam 1-C), the IC50 in the series on Aspergillus fumigatus [2] was 3 ng/mL. For the same molecule, the minimal inhibitory concentration (MIC) in the series on Candida albicans [3] worked out at 0.05 µg/mL; against Aspergillus fumigatus [4], 1.56 µg/mL; against Candida albicans [5] it was 1.56 µg/mL. For the same molecule, in [1], the hemolysis at 1 mg/ml was determined as 33%.
Consider `CCCCCOc1ccc(-c2nc(-c3ccc(C(=O)N[C@H]4C[C@@H](O)[C@@H](O)NC(=O)[C@@H]5[C@@H](O)[C@@H](C)CN5C(=O)[C@H]([C@H](O)CC(N)=O)NC(=O)[C@H]([C@H](O)[C@@H](O)c5ccc(O)c(OS(=O)(=O)[O-])c5)NC(=O)[C@@H]5C[C@@H](O)CN5C(=O)C([C@@H](C)O)NC4=O)cc3)cs2)cc1.[Na+]` (stereo partly drawn) (X8-[Orn(4R-OH,5R-OH)][ξThr(3R)][Hyp][hTyr(3S-OH,4S-OH,3'-OSO3H)][Gln(3R-OH)][Pro(3S-OH,4S-Me)]; lactam 1-C), for which the MIC with Candida albicans [3] worked out at 0.1 µg/mL; in the series with Aspergillus fumigatus [4], 3.13 µg/mL; against Candida albicans [5], 6.25 µg/mL. In addition, the hemolysis at 1 mg/ml in series [1] was less than 20%.
In the series with Aspergillus fumigatus [2], `CCCCCOc1ccc(-c2cc(-c3ccc(C(=O)N[C@H]4C[C@@H](O)[C@@H](O)NC(=O)[C@@H]5[C@@H](O)[C@@H](C)CN5C(=O)[C@H]([C@H](O)CC(N)=O)NC(=O)[C@H]([C@H](O)[C@@H](O)c5ccc(O)c(OS(=O)(=O)[O-])c5)NC(=O)[C@@H]5C[C@@H](O)CN5C(=O)C([C@@H](C)O)NC4=O)cc3)on2)cc1.[Na+]` (stereo partly drawn) (X5-[Orn(4R-OH,5R-OH)][ξThr(3R)][Hyp][hTyr(3S-OH,4S-OH,3'-OSO3H)][Gln(3R-OH)][Pro(3S-OH,4S-Me)]; lactam 1-C) displayed an IC50 of 1 ng/mL. The MIC is 0.05 µg/mL against Candida albicans [3], 0.78 µg/mL in the series with Aspergillus fumigatus [4] and 1.56 µg/mL against Candida albicans [5]. The hemolysis at 1 mg/ml in series [1] came to 38%.

The record behind these values is ChEMBL document CHEMBL1145626, “Novel echinocandin antifungals. Part 2: Optimization of the side chain of the natural product FR901379. Discovery of micafungin” (Bioorg Med Chem Lett, 2008).
